Experiments:
RS4 cells = assay: Cell viability assay, MTS, 72 h, RS4;11; type: cell-based; conditions: Homo sapiens
Protocol: (§1) Cancer cells from different tissue origins including acute lymphoblastic leukemia (MOLT4 and RS4; 11), small cell lung cancer (NCI-H146 or simply H146), and multiple myeloma (EJM and H929) were incubated with increasing concentrations of Examples 1-21 or ABT-263 for 72 h. Cell viability was measured by tetrazolium-based MTS assay. 5×10^4 to 1×10^5 suspension cells or 3×10^3 to 5×10^3 adherent cells were seeded and treated in 96-well plates for 72 h. The EC50 values of individual agents were calculated with GraphPad Prism.

MOLT-4 cells = assay: Cell viability assay, MTS, 72 h, MOLT-4; type: cell-based; conditions: Homo sapiens; MOLT-4 cells, 72 h, MTS
Protocol: as §1

SMILES | IC50 (RS4 cells) | IC50 (MOLT-4 cells)
Cc1ncsc1-c1ccc([C@H](C)NC(=O)[C@@H]2C[C@@H](O)CN2C(=O)[C@@H](NC(=O)COCCOCCOCCOCCOCC(=O)NCC2(C)CCC(c3ccc(Cl)cc3)=C(CN3CCN(c4ccc(C(=O)NS(=O)(=O)c5ccc(N[C@H](CCN6CCOCC6)CSc6ccccc6)c(S(=O)(=O)C(F)(F)F)c5)cc4)CC3)C2)C(C)(C)C)cc1 (stereo partly drawn) [Compound 60, N^1-((4′-chloro-4-methyl-6-((4-(4-(((4-(((R)-4-morpholino-1-(phenylthio)butan-2-yl)amino)-3-((trifluoromethyl)sulfonyl)phenyl)sulfonyl)carbamoyl)phenyl)piperazin-1-yl)methyl)-2,3,4,5-tetrahydro-[1,1′-biphenyl]-4-yl)methyl)-N^17—((S)-1-((2S,4R)-4-hydroxy-2-(((S)-1-(4-(4-methylthiazol-5-yl)phenyl)ethyl)carbamoyl)pyrrolidin-1-yl)-3,3-dimethyl-1-oxobutan-2-yl)-3,6,9,12,15-pentaoxaheptadecanediamide] | 758 nM | 1410 nM
Cc1ncsc1-c1ccc([C@H](C)NC(=O)[C@@H]2C[C@@H](O)CN2C(=O)[C@@H](NC(=O)CCCCCC(=O)NCC2(C)CCC(c3ccc(Cl)cc3)=C(CN3CCN(c4ccc(C(=O)NS(=O)(=O)c5ccc(N[C@H](CCN6CCOCC6)CSc6ccccc6)c(S(=O)(=O)C(F)(F)F)c5)cc4)CC3)C2)C(C)(C)C)cc1 (stereo partly drawn) [Compound 50, N^1-((4′-chloro-4-methyl-6-((4-(4-(((4-(((R)-4-morpholino-1-(phenylthio)butan-2-yl)amino)-3-((trifluoromethyl)sulfonyl)phenyl)sulfonyl)carbamoyl)phenyl)piperazin-1-yl)methyl)-2,3,4,5-tetrahydro-[1,1′-biphenyl]-4-yl)methyl)-N^7—((S)-1-((2S,4R)-4-hydroxy-2-(((S)-1-(4-(4-methylthiazol-5-yl)phenyl)ethyl)carbamoyl)pyrrolidin-1-yl)-3,3-dimethyl-1-oxobutan-2-yl)heptanediamide] | 99 nM | 187 nM
Cc1ncsc1-c1ccc([C@H](C)NC(=O)[C@@H]2C[C@@H](O)CN2C(=O)[C@@H](NC(=O)CCCCC(=O)NCC2(C)CCC(c3ccc(Cl)cc3)=C(CN3CCN(c4ccc(C(=O)NS(=O)(=O)c5ccc(N[C@H](CCN6CCOCC6)CSc6ccccc6)c(S(=O)(=O)C(F)(F)F)c5)cc4)CC3)C2)C(C)(C)C)cc1 (stereo partly drawn) [Compound 49, N′-((4′-chloro-4-methyl-6-((4-(4-(((4-(((R)-4-morpholino-1-(phenylthio)butan-2-yl)amino)-3-((trifluoromethyl)sulfonyl)phenyl)sulfonyl)carbamoyl)phenyl)piperazin-1-yl)methyl)-2,3,4,5-tetrahydro-[1,1′-biphenyl]-4-yl)methyl)-N^6—((S)-1-((2S,4R)-4-hydroxy-2-(((S)-1-(4-(4-methylthiazol-5-yl)phenyl)ethyl)carbamoyl)pyrrolidin-1-yl)-3,3-dimethyl-1-oxobutan-2-yl)adipamide] | 303 nM | 340 nM
Cc1ncsc1-c1ccc([C@H](C)NC(=O)[C@@H]2C[C@@H](O)CN2C(=O)[C@@H](NC(=O)CCCCCCCCCCCC(=O)NCC2(C)CCC(c3ccc(Cl)cc3)=C(CN3CCN(c4ccc(C(=O)NS(=O)(=O)c5ccc(N[C@H](CCN6CCOCC6)CSc6ccccc6)c(S(=O)(=O)C(F)(F)F)c5)cc4)CC3)C2)C(C)(C)C)cc1 (stereo partly drawn) [Compound 56, N^1-((4′-chloro-4-methyl-6-((4-(4-(((4-(((R)-4-morpholino-1-(phenylthio)butan-2-yl)amino)-3-((trifluoromethyl)sulfonyl)phenyl)sulfonyl)carbamoyl)phenyl)piperazin-1-yl)methyl)-2,3,4,5-tetrahydro-[1,1′-biphenyl]-4-yl)methyl)-N^13—((S)-1-((2S,4R)-4-hydroxy-2-(((S)-1-(4-(4-methylthiazol-5-yl)phenyl)ethyl)carbamoyl)pyrrolidin-1-yl)-3,3-dimethyl-1-oxobutan-2-yl)tridecanediamide] | 410 nM | 333 nM
Cc1ncsc1-c1ccc([C@H](C)NC(=O)[C@@H]2C[C@@H](O)CN2C(=O)[C@@H](NC(=O)COCCOCCOCCOCC(=O)NCC2(C)CCC(c3ccc(Cl)cc3)=C(CN3CCN(c4ccc(C(=O)NS(=O)(=O)c5ccc(N[C@H](CCN6CCOCC6)CSc6ccccc6)c(S(=O)(=O)C(F)(F)F)c5)cc4)CC3)C2)C(C)(C)C)cc1 (stereo partly drawn) [Compound 59, N^1-((4′-chloro-4-methyl-6-((4-(4-(((4-(((R)-4-morpholino-1-(phenylthio)butan-2-yl)amino)-3-((trifluoromethyl)sulfonyl)phenyl)sulfonyl)carbamoyl)phenyl)piperazin-1-yl)methyl)-2,3,4,5-tetrahydro-[1,1′-biphenyl]-4-yl)methyl)-N^14—((S)-1-((2S,4R)-4-hydroxy-2-(((S)-1-(4-(4-methylthiazol-5-yl)phenyl)ethyl)carbamoyl)pyrrolidin-1-yl)-3,3-dimethyl-1-oxobutan-2-yl)-3,6,9,12-tetraoxatetradecanediamide] | 404 nM | 973 nM
Cc1ncsc1-c1ccc([C@H](C)NC(=O)[C@@H]2C[C@@H](O)CN2C(=O)[C@@H](NC(=O)CCCCCCCCCC(=O)NCC2(C)CCC(c3ccc(Cl)cc3)=C(CN3CCN(c4ccc(C(=O)NS(=O)(=O)c5ccc(N[C@H](CCN6CCOCC6)CSc6ccccc6)c(S(=O)(=O)C(F)(F)F)c5)cc4)CC3)C2)C(C)(C)C)cc1 (stereo partly drawn) [Compound 54, N^1-((4′-chloro-4-methyl-6-((4-(4-(((4-(((R)-4-morpholino-1-(phenylthio)butan-2-yl)amino)-3-((trifluoromethyl)sulfonyl)phenyl)sulfonyl)carbamoyl)phenyl)piperazin-1-yl)methyl)-2,3,4,5-tetrahydro-[1,1′-biphenyl]-4-yl)methyl)-N^11—((S)-1-((2S,4R)-4-hydroxy-2-(((S)-1-(4-(4-methylthiazol-5-yl)phenyl)ethyl)carbamoyl)pyrrolidin-1-yl)-3,3-dimethyl-1-oxobutan-2-yl)undecanediamide] | 19.4 nM | 74 nM
CC1(CNC(=O)CCCCCNc2cccc3c2C(=O)N(C2CCC(=O)NC2=O)C3=O)CCC(c2ccc(Cl)cc2)=C(CN2CCN(c3ccc(C(=O)NS(=O)(=O)c4ccc(N[C@H](CCN5CCOCC5)CSc5ccccc5)c(S(=O)(=O)C(F)(F)F)c4)cc3)CC2)C1 (stereo partly drawn) [Compound 62, 4-(4-((4′-chloro-4-((6-((2-(2,6-dioxopiperidin-3-yl)-1,3-dioxoisoindolin-4-yl)amino)hexanamido)methyl)-4-methyl-3,4,5,6-tetrahydro-[1,1′-biphenyl]-2-yl)methyl)piperazin-1-yl)-N-((4-(((R)-4-morpholino-1-(phenylthio)butan-2-yl)amino)-3-((trifluoromethyl)sulfonyl)phenyl)sulfonyl)benzamide] | 33 nM | 36 nM
